{"source": "ChEMBL document CHEMBL4359925", "about": "“Rational discovery of a highly novel and selective mTOR inhibitor” (Bioorg Med Chem Lett, 2019)", "key": {"NCI-H929": {"system": "NCI-H929", "experiment": "Antiproliferative activity against human NCI-H929 cells", "format": "functional, cell-based"}, "NCI-H1395 [1]": {"system": "NCI-H1395", "experiment": "Additive antiproliferative activity against human NCI-H1395 cells harboring BRAF G469A in presence of gemcitabine", "format": "functional, cell-based"}, "[2]": {"experiment": "Half-life in mouse at 10.4 mg/kg, iv", "format": "ADME, organism-based", "conditions": "in vivo"}, "[3]": {"experiment": "Cmax in rat at 83 mg/kg, po", "format": "ADME, organism-based", "set-up": "dose 83 mg/kg, route oral", "conditions": "in vivo"}, "[4]": {"experiment": "Tmax in rat at 3 mg/kg, po", "format": "ADME, organism-based", "conditions": "in vivo"}, "[5]": {"experiment": "Cmax in rat at 4.9 mg/kg, po", "format": "ADME, organism-based", "set-up": "dose 4.9 mg/kg, route oral", "conditions": "in vivo"}, "[6]": {"experiment": "Half-life in rat at 0.8 mg/kg, iv", "format": "ADME, organism-based", "conditions": "in vivo"}, "NCI-H1395 [7]": {"system": "NCI-H1395", "experiment": "Additive antiproliferative activity against human NCI-H1395 cells harboring LKB1 mutant in presence of erlotinib", "format": "functional, cell-based"}, "A498": {"system": "A498", "experiment": "Antiproliferative activity against human A498", "format": "functional, cell-based"}, "NCI-H460 [8]": {"system": "NCI-H460", "experiment": "Synergistic antiproliferative activity against human H460 cells harboring KRAS […] mutant in presence of erlotinib"}, "[9]": {"experiment": "Tmax in dog at 10 mg/kg, po", "format": "ADME, organism-based, Canis lupus familiaris", "conditions": "in vivo"}, "[10]": {"experiment": "Cmax in dog at 0.2 mg/kg, iv", "format": "ADME, organism-based, Canis lupus familiaris", "set-up": "dose 0.2 mg/kg, route intravenous", "conditions": "in vivo"}, "BXPC-3": {"system": "BXPC-3", "experiment": "Antiproliferative activity against human BxPC3 cells", "format": "functional, cell-based"}, "[11]": {"experiment": "Half-life in rat at 4.9 mg/kg, po", "format": "ADME, organism-based", "conditions": "in vivo"}, "[12]": {"experiment": "Tmax in rat at 31 mg/kg, po", "format": "ADME, organism-based", "conditions": "in vivo"}, "NCI-H1975": {"system": "NCI-H1975", "experiment": "Additive antiproliferative activity against human NCI-H1975 cells harboring EGFR […]/T790M mutant in presence of gemcitabine", "format": "functional, cell-based"}, "[13]": {"experiment": "Cmax in rat at 100 mg/kg, po", "format": "ADME, organism-based", "set-up": "dose 100 mg/kg, route oral", "conditions": "in vivo"}, "[14]": {"experiment": "Cmax in rat at 3 mg/kg, po", "format": "ADME, organism-based", "set-up": "dose 3 mg/kg, route oral", "conditions": "in vivo"}, "[15]": {"experiment": "Half-life in rat at 95 mg/kg, po", "format": "ADME, organism-based", "conditions": "in vivo"}, "NCI-H1395 [16]": {"system": "NCI-H1395", "experiment": "Additive antiproliferative activity against human NCI-H1395 cells harboring BRAF G469A in presence of erlotinib", "format": "functional, cell-based"}, "[17]": {"experiment": "Clearance in rat at 0.8 mg/kg, iv", "format": "ADME, organism-based", "conditions": "in vivo"}, "[18]": {"experiment": "Volume of distribution at steady state in mouse at 2.8 mg/kg, iv", "format": "ADME, organism-based", "conditions": "in vivo, read-out: Vdss"}, "[19]": {"experiment": "Clearance in mouse at 10.4 mg/kg, iv", "format": "ADME, organism-based", "conditions": "in vivo"}, "[20]": {"experiment": "Cmax in rat at 30 mg/kg, po", "format": "ADME, organism-based", "set-up": "dose 30 mg/kg, route oral", "conditions": "in vivo"}, "[21]": {"experiment": "Cmax in rat at 4.1 mg/kg, po", "format": "ADME, organism-based", "set-up": "dose 4.1 mg/kg, route oral", "conditions": "in vivo"}, "NCI-H460 [22]": {"system": "NCI-H460", "experiment": "Synergistic antiproliferative activity against human H460 cells harboring KRAS […] mutant in presence of gemcitabine"}, "[23]": {"experiment": "Half-life in dog at 10 mg/kg, po", "format": "ADME, organism-based, Canis lupus familiaris", "conditions": "in vivo"}, "[24]": {"experiment": "Half-life in rat at 93 mg/kg, po", "format": "ADME, organism-based", "conditions": "in vivo"}, "[25]": {"experiment": "Half-life in rat at 100 mg/kg, po", "format": "ADME, organism-based", "conditions": "in vivo"}, "MIA PaCa-2": {"system": "MIA PaCa-2", "experiment": "Antiproliferative activity against human MIAPaCa2 cells", "format": "functional, cell-based"}, "[26]": {"experiment": "Tmax in rat at 93 mg/kg, po", "format": "ADME, organism-based", "conditions": "in vivo"}, "A2780": {"system": "A2780", "experiment": "Antiproliferative activity against human A2780", "format": "functional, cell-based"}, "[27]": {"experiment": "Clearance in dog at 0.2 mg/kg, iv", "format": "ADME, organism-based, Canis lupus familiaris", "conditions": "in vivo"}, "[28]": {"experiment": "Tmax in rat at 30 mg/kg, po", "format": "ADME, organism-based", "conditions": "in vivo"}, "NCI-H460 [29]": {"system": "NCI-H460", "experiment": "Synergistic antiproliferative activity against human H460 cells harboring LKB1 mutant in presence of erlotinib", "format": "functional, cell-based"}, "A549 [30]": {"system": "A549", "experiment": "Synergistic antiproliferative activity against human A549 cells harboring LKB1 mutant in presence of erlotinib", "format": "functional, cell-based"}, "[31]": {"experiment": "Cmax in rat at 160 mg/kg, po", "format": "ADME, organism-based", "set-up": "dose 160 mg/kg, route oral", "conditions": "in vivo"}, "[32]": {"experiment": "Half-life in dog at 0.45 mg/kg, po", "format": "ADME, organism-based, Canis lupus familiaris", "conditions": "in vivo"}, "HT-29": {"system": "HT-29", "experiment": "Antiproliferative activity against human HT-29", "format": "functional, cell-based"}, "[33]": {"experiment": "Volume of distribution at steady state in rat at 0.8 mg/kg, iv", "format": "ADME, organism-based", "conditions": "in vivo, read-out: Vdss"}, "NCI-H1650": {"system": "NCI-H1650", "experiment": "Antiproliferative activity against human NCI-H1650 cells", "format": "functional, cell-based"}, "[34]": {"experiment": "Cmax in mouse at 2.8 mg/kg, iv", "format": "ADME, organism-based", "set-up": "dose 2.8 mg/kg, route intravenous", "conditions": "in vivo"}, "[35]": {"experiment": "Half-life in dog at 0.2 mg/kg, iv", "format": "ADME, organism-based, Canis lupus familiaris", "conditions": "in vivo"}, "A549 [36]": {"system": "A549", "experiment": "Synergistic antiproliferative activity against human A549 cells harboring LKB1 mutant in presence of gemcitabine", "format": "functional, cell-based"}, "[37]": {"experiment": "Tmax in rat at 160 mg/kg, po", "format": "ADME, organism-based", "conditions": "in vivo"}, "NCI-H460 [38]": {"system": "NCI-H460", "experiment": "Synergistic antiproliferative activity against human H460 cells harboring LKB1 mutant in presence of gemcitabine", "format": "functional, cell-based"}, "[39]": {"target": "Serine/threonine-protein kinase mTOR (Homo sapiens, UniProt P42345)", "experiment": "Inhibition of human mTOR measured after 30 mins in presence of ATP by Lanthascreen TR-FRET assay"}}, "note": "The source made the active and inactive calls. The rule behind the calls is not given here.", "data": [{"smiles": "CC(F)(F)CN1C(=O)[C@]2(C)COCCN2c2nc(-c3ccc(NC(=O)NC4CC4)cc3)ncc21", "values": [{"measurement": "Activity", "setting": "NCI-H929", "value": "Active"}, {"measurement": "Activity", "setting": "NCI-H1395 [1]", "value": "Active"}, {"measurement": "half-life", "setting": "[2]", "value": 2, "unit": "h"}, {"measurement": "Cmax", "setting": "[3]", "value": 2370, "unit": "ng/mL"}, {"measurement": "Tmax", "setting": "[4]", "value": 6.7, "unit": "h"}, {"measurement": "Cmax", "setting": "[5]", "value": 1190, "unit": "ng/mL"}, {"measurement": "half-life", "setting": "[6]", "value": 1.8, "unit": "h"}, {"measurement": "Activity", "setting": "NCI-H1395 [7]", "value": "Active"}, {"measurement": "Activity", "setting": "A498", "value": "Active"}, {"measurement": "Activity", "setting": "NCI-H460 [8]", "value": "Active"}, {"measurement": "Tmax", "setting": "[9]", "value": 10.7, "unit": "h"}, {"measurement": "Cmax", "setting": "[10]", "value": 278, "unit": "ng/mL"}, {"measurement": "Activity", "setting": "BXPC-3", "value": "Active"}, {"measurement": "half-life", "setting": "[11]", "value": 5.5, "unit": "h"}, {"measurement": "Tmax", "setting": "[12]", "value": "8 to 19.3", "unit": "h"}, {"measurement": "Activity", "setting": "NCI-H1975", "value": "Active"}, {"measurement": "Cmax", "setting": "[13]", "value": "3670 to 6410", "unit": "ng/mL"}, {"measurement": "Cmax", "setting": "[14]", "value": 176, "unit": "ng/mL"}, {"measurement": "half-life", "setting": "[15]", "value": 33.9, "unit": "h"}, {"measurement": "Activity", "setting": "NCI-H1395 [16]", "value": "Active"}, {"measurement": "clearance", "setting": "[17]", "value": 6.9, "unit": "mL/min/kg"}, {"measurement": "Vd", "setting": "[18]", "value": 1.66, "unit": "L/kg"}, {"measurement": "clearance", "setting": "[19]", "value": 4, "unit": "mL/min/kg"}, {"measurement": "Cmax", "setting": "[20]", "value": "1850 to 2400", "unit": "ng/mL"}, {"measurement": "Cmax", "setting": "[21]", "value": 150, "unit": "ng/mL"}, {"measurement": "Activity", "setting": "NCI-H460 [22]", "value": "Active"}, {"measurement": "half-life", "setting": "[23]", "value": 9.9, "unit": "h"}, {"measurement": "half-life", "setting": "[24]", "value": 23.4, "unit": "h"}, {"measurement": "half-life", "setting": "[25]", "value": "14.7 to 15", "unit": "h"}, {"measurement": "Activity", "setting": "MIA PaCa-2", "value": "Active"}, {"measurement": "Tmax", "setting": "[26]", "value": 8.7, "unit": "h"}, {"measurement": "Activity", "setting": "A2780", "value": "Active"}, {"measurement": "clearance", "setting": "[27]", "value": 3.3, "unit": "mL/min/kg"}, {"measurement": "Tmax", "setting": "[28]", "value": "4 to 8", "unit": "h"}, {"measurement": "Activity", "setting": "NCI-H460 [29]", "value": "Active"}, {"measurement": "Activity", "setting": "A549 [30]", "value": "Active"}, {"measurement": "Cmax", "setting": "[31]", "value": 7700, "unit": "ng/mL"}, {"measurement": "half-life", "setting": "[32]", "value": 10.3, "unit": "h"}, {"measurement": "Activity", "setting": "HT-29", "value": "Active"}, {"measurement": "Vd", "setting": "[33]", "value": 0.951, "unit": "L/kg"}, {"measurement": "Activity", "setting": "NCI-H1650", "value": "Active"}, {"measurement": "Cmax", "setting": "[34]", "value": 6860, "unit": "ng/mL"}, {"measurement": "half-life", "setting": "[35]", "value": 7.5, "unit": "h"}, {"measurement": "Activity", "setting": "A549 [36]", "value": "Active"}, {"measurement": "Tmax", "setting": "[37]", "value": 10, "unit": "h"}, {"measurement": "Activity", "setting": "NCI-H460 [38]", "value": "Active"}, {"measurement": "IC50", "setting": "[39]", "value": 12.6, "unit": "nM"}]}]}
